# Experiments:
# ND2 mutant flies = experiment: Mechanical stress-induced (bang sensitive) paralysis test in ND2 mutant flies; assay type: in vivo, Drosophila; conditions: ND2 mutant flies treated throughout life with 10 μM of drug; tested after aging 15 days
# Excerpt: Mutations affecting mitochondrial complex I, a multi-subunit assembly that couples electron transfer to proton pumping, are the most frequent cause of heritable mitochondrial diseases. Here, a Drosophila model of complex I deficiency caused by a homoplasmic mutation in the mitochondrial-encoded NADH dehydrogenase subunit 2 (ND2) gene is used. […] This ND2 mutant model was used in “bang sensitivity” behavioral analysis to show the effects of kinetin treatment.
# All Drosophila strains were maintained on standard cornmeal/molasses medium at 25° C. with a 12-hour lightdark cycle. The ND2de11 and ND2ins1 stock was obtained from the laboratory of Dr. Patrick O'Farrell (University of California, San Francisco) (Xu et al., 2008). The isogenic w1118 stock was obtained from the Bloomington Drosophila Stock Center at Indiana University. […]
# Drosophila strains with mutations affecting mitochondrial function often show an analogous seizure-like paralytic phenotype caused by mechanical-stress, termed “bang sensitivity” (Celotto et al., 2011; Fergestad et al., 2006; Ganetzky and Wu, 1982). […] Briefly, flies were vortexed for 10 seconds in inverted glass vials containing cotton stoppers, and the time required for each individual animal to right itself was recorded. […]
# Unless otherwise stated statistical significance tests were calculated using an unpaired two-tailed Student's t-test.
# [1] = tested on: mouse primary dopaminergic neuron culture; experiment: Survival of TH positive dopaminergic neurons in primary mesencephalic culture injured by MPP+; assay type: cell-based; conditions: for TH neuron survival against MPP+, % of cell survival / dopaminergic (TH positive) neuron survival, percentage of control / decrease of TH positive neurons: MPP+ 4 μM for 48 h
# Excerpt: Parkinson's disease (PD) is the second most common neurodegenerative disorder in the United States. The predominant motor symptoms of PD including slow movement, resting tremor, rigidity, and gait disturbance, are caused by the loss of dopaminergic neurons in the substantia nigra (SN). Although the aetiology of PD remains unknown, both genetic and environmental factors appear to play a role (Paisan-Ruiz et al., 2004; Vila & Przedborski, 2004). The neurotoxicant 1-methyl-4-phenyl-1, 2, 3, 6-tetrahydropyridine (MPTP) is a specific dopaminergic neuronal toxin. MPTP is converted to 1-methyl-4-phenyl pyridinium (MPP+) by astroglia and then causes specific dopaminergic neuronal death in the SN, thus leading to the clinical symptoms of PD in humans, primates and mice (Uhl et al., 1985). For this reason, MPTP-induced dopaminergic neurotoxicity in mice is widely used as a model for PD research. It has been largely reported that MPP+ causes neurodegeneration of dopaminergic neurones in vitro and provides a useful model of Parkinson's disease in vitro. […] This study investigated the neuroprotective effect of Mitokinin test compound (kinetin) in function on time of pre-incubation and concentration on mouse primary mesencephalic cultures injured by exposure to 1-methyl-4-phenylpyridinium (MPP+), a Parkinson' disease model in vitro. BDNF at 10 ng/ml will be used as a positive control in this study.
# Mouse dopaminergic neurons are cultured as described by Schinelli et al., 1988 and Viswanath et al., 2001. Briefly pregnant female mouse of 14 days gestation are killed by cervical dislocation (Mouse C57Bl/6; Janvier Labs) and the foetuses are removed from the uterus. The embryonic midbrains are removed and placed in ice-cold medium of Leibovitz (L15; PanBiotech; ref: PO4-27055, batch: 4290114) containing 2% of Penicillin-Streptomycin (PS; PanBiotech; ref: P06-07100; batch: 4810114) and 1% of bovine serum albumin (BSA; PanBiotech; Ref: P06-1391100, batch: K030913). Only the ventral portions of the mesencephalic flexure are used for the cell preparations as this is the region of the developing brain rich in dopaminergic neurons. The midbrains are dissociated by trypsinisation for 20 min at 37° C. (Trypsin EDTA IX; PanBiotech Ref: P10-023100; batch: 1681013). The reaction is stopped by the addition of Dulbecco's modified Eagle's medium (DMEM; PanBiotech Ref PO4-03600; batch: 9710913) containing DNAase I grade II (0.1 mg/ml; Panbiotech, ref: P60-37780100; batch: H130919) and 10% of foetal calf serum (FCS; Invitrogen; ref: 10270-098; batch: 41Q4120K). Cells are then mechanically dissociated by 3 passages through a 10 ml pipette. Cells are then centrifuged at 180×g for 10 min at 4° C. temperature on a layer of BSA (3.5%) in L15 medium. The supernatant is discarded and the cells of pellet is re-suspended in a defined culture medium consisting of Neurobasal (Invitrogen, ref: 21103; batch: 1556347) supplemented with B27 (2%; Invitrogen; ref: 17504; batch: 1446691), L-glutamine (2 mM; PanBiotech; ref: PO4-80100; batch: 6620314) and 2% of PS solution. Viable cells are counted in a Neubauer cytometer using the trypan blue exclusion test. The cells are seeded at a density of 70 000 cells/well in 96 well-plates (wells are pre-coated with poly-L-lysine (Greiner)) and are cultured at 37° C. in a humidified air (95%)/CO2 (5%) atmosphere. Half of the medium are changed every 2 days with fresh medium. In these conditions, after 5 days of culture, astrocytes are present in the culture and release growth factor allowing neurons differentiation. Five to six percents of the neuronal cell population are dopaminergic neurons.
# Briefly, on day 5 of culture, the medium was removed and fresh medium was added, without or with kinetin (Sigma ref 48130) at 100 μM, 50 μM, 25 μM and with and without BDNF 10 ng/ml for 2 days, 6 days or 10 days. […]
# SH-SYSY cells = experiment: Modulation of PINK1: Caspase-Glo caspase 3/7 cleavage after MG-132 in SH-SYSY cells; assay type: cell-based; conditions: then 25 uM MG-132 for 16 hours, % of kinetin's caspase cleavage values; for Run1 Compound (avg as % kinetin): Run1, compound 96 hours; for Run2 Compound (avg as % kinetin): Run2, compound 96 hours; for Run3 Compound (avg as % kinetin): Run3, compound 96 hours
# Procedure: We grew SH-SYSY cells in 1:1 mix of DMEM and F12 supplemented with 10% FBS and Pen/Strep (1×) antibiotics on 96 well plates (˜5,000 cells/well) at 37 degrees Celsius in 90 ul per well. We added 10 ul of 10× mix of the compounds identified below in a DMSO and medium mix to the cells. (min. 2 wells per compound per plate), allowed it to incubate for 96 hours at 37 degrees Celsius, then added 25 uM MG-132 for 16 hours (a proteasome inhibitor that triggers apoptosis; this toxicity is known to be opposed by PINK1). Following incubation with MG-132 we added 100 ul of Promega Caspase-Glo® reagent directly to each well to lyse cells and provide a luminescent Caspase 3/7 substrate peptide to quantify caspase cleavage activity. All of the values in Table 2 are presented as a % of kinetin's caspase cleavage values (kinentin was run as a positive control in parallel to the analogs of kinetin shown below).
molecule,measurement,setting,value
Nc1ncnc2nc[nH]c12 [Adenine],mean time necessary for recovery (to right itself) after 10 seconds vortexing,ND2 mutant flies,approximately 9 seconds
"c1coc(CNc2ncnc3nc[nH]c23)c1 [Kinetin, kinetin]","TH neuron survival against MPP+, % of cell survival",[1]; Kinetin 25 μM pre-incubated 10 days,76%
same,"dopaminergic (TH positive) neuron survival, percentage of control",[1]; Kinetin 100 μM pre-incubated 2 days,70%
same,"dopaminergic (TH positive) neuron survival, percentage of control",[1]; Kinetin 100 μM pre-incubated 6 days,72%
same,toxicity on dopaminergic neurons on long incubation,[1]; Kinetin 100 μM pre-incubated 10 days,toxic
same,"TH neuron survival against MPP+, % of cell survival",[1]; Kinetin 5004 pre-incubated 10 days,84%
same,mean time necessary for recovery (to right itself) after 10 seconds vortexing,ND2 mutant flies,0.5 s
"C[n+]1ccc(-c2ccccc2)cc1 [MPP^+, 1-methyl-4-phenylpyridinium]",decrease of TH positive neurons,[1]; 2 days pre-incubation series (FIG. 1),~50%
same,decrease of TH positive neurons,[1]; 6 days pre-incubation series (FIG. 2),~54%
same,decrease of TH positive neurons,[1]; 10 days pre-incubation series (FIG. 3),~47%
"c1coc(CC2CNc3ncnc4ncn2c34)c1 (stereo not shown) [MTK- 48, 7-(furan-2-ylmethyl)-8,9-dihydro-7H-imidazo[4,5,1-de]pteridine]",Run1 Compound (avg as % kinetin),SH-SYSY cells,92%
same,Run2 Compound (avg as % kinetin),SH-SYSY cells,122%
same,Run3 Compound (avg as % kinetin),SH-SYSY cells,95%
"c1coc(CNc2ncnc3[nH]ncc23)c1 [MTK- 51, N-(furan-2-ylmethyl)-1H-pyrazolo [3,4-d]pyrimidin-4-amine]",Run1 Compound (avg as % kinetin),SH-SYSY cells,80%
same,Run2 Compound (avg as % kinetin),SH-SYSY cells,92%
"c1coc(CNc2ccnc3[nH]cnc23)c1 [MTK- 58, N-(furan-2-ylmethyl)-3H-imidazo[4,5-b]pyridin-7-amine]",Run1 Compound (avg as % kinetin),SH-SYSY cells,94%
same,Run2 Compound (avg as % kinetin),SH-SYSY cells,108%
"c1coc(CNc2ccnc3[nH]ncc23)c1 [MTK- 59, N-(furan-2-ylmethyl)-1H-pyrazolo[3,4-b]pyridin-4-amine]",Run1 Compound (avg as % kinetin),SH-SYSY cells,72%
same,Run2 Compound (avg as % kinetin),SH-SYSY cells,108%
"c1coc(CNc2nccc3[nH]ncc23)c1 [MTK- 62, N-(furan-2-ylmethyl)-1H-pyrazolo[4,3-c]pyridin-4-amine]",Run1 Compound (avg as % kinetin),SH-SYSY cells,88%
same,Run2 Compound (avg as % kinetin),SH-SYSY cells,132%
"Cc1nc2c(NCc3ccco3)ncnc2[nH]1 [MTK- 64, N-(furan-2-ylmethyl)-8-methyl-9H-purin-6-amine]",Run1 Compound (avg as % kinetin),SH-SYSY cells,79%
same,Run2 Compound (avg as % kinetin),SH-SYSY cells,120%
same,Run3 Compound (avg as % kinetin),SH-SYSY cells,93%
"Nc1nc(NCc2ccco2)c2nc[nH]c2n1 [MTK- 68, N-6-(furan-2-ylmethyl)-9H-purine-2,6-diamine]",Run1 Compound (avg as % kinetin),SH-SYSY cells,95%
"BDNF: brain derived neurotrophic factor, used at 10 ng/ml as positive control (protein, UniProt P23560 19-247, looked up) Neurotrophic factor BDNF …: APMKEANIRGQGGLAYPGVRTHGTLESVNGPKAGSRGLTSLADTFEHVIEELLDEDQKVRPNEENNKDADLYTSRVMLSSQVPLEPPLLFLLEEYKNYLDAANMSMRVRRHSDPARRGELSVCDSISEWVTAADKKTAVDMSGGTVTVLEKVPVSKGQLKQYFYETKCNPMGYTKEGCRGIDKRHWNSQCRTTQSYVRALTMDSKKRIGWRFIRIDTSCVCTLTIKRGR","dopaminergic (TH positive) neuron survival, percentage of control","[1]; BDNF 10 ng/mL, 2 days pre-incubation series",87%
same,"dopaminergic (TH positive) neuron survival, percentage of control","[1]; BDNF 10 ng/mL, 6 days pre-incubation series",84%
same,"dopaminergic (TH positive) neuron survival, percentage of control","[1]; BDNF 10 ng/mL, 10 days pre-incubation series",91%

# Reference: patent US10851109B2, “Compositions and methods of using the same for treatment of neurodegenerative and mitochondrial disease” (Mitokinin, Inc., priority 2014, dated 2020)
